{"source": "patent USRE38994E1", "about": "“Pyropheophorbides conjugates and their use in photodynamic therapy” (Health Research, Inc., priority 1988, dated 2006)", "key": {"[1]": {"test_system": "SMT-F tumor", "test": "In vivo tumor photosensitizing activity (photodynamic tumor treatment)", "design": "species or system DBA/2 mice", "settings": "for Tumor Response Day 1 (Number of non-palpable tumors/Number treated tumors) / Tumor Response Day 7 (Number of non-palpable tumors/Number treated tumors) / Tumor Response Day 30 (Number of non-palpable tumors/Number treated tumors) / Tumor Response Day 90 (Number of non-palpable tumors/Number treated tumors): time interval 24 hours, 135 J/cm^2 laser at 75 mW/cm^2", "description": "When 2-[1-(O-hexyl)ethyl]devinyl pyropheophorbide-a - structure (5) in Scheme 1: S—RO—where R═(CH2)5CH3 and m═H, (formula IIa) synthesized as indicated (5.0 mg) is dissolved in Tween 80 (0.1 ml) and mixed with 10 ml Hanks Balanced Salt Solution (HBSS), a solution of approximately 0.5 mg/ml in […] is produced after filtration through a 0.22 AM Millipore filter. […] […] Alternately, a Xenon arc lamp filtered to emit a broader band width near 670 nm and approximately 283 Joules/cm^2 can be used.\nThis progresses to frank tumor necrosis over the next few days. […] At 30 days post treatment, six of the 10 tumors remain non-palpable, and one remains tumor-free to 90 days post treatment."}, "[2]": {"test": "Normal foot response / skin clearance after light exposure", "format": "in vivo, albino Swiss mice (HaICR)", "settings": "for Normal Foot Response Maximum Reaction (score): same light conditions as tumor treatment, score 0.3 - slight edema, 0 - no reaction", "description": "Six albino Swiss mice (HaICR) are injected intravenously with a dose of 0.1 mg/kg body weight of the compound of formula IIa prepared as in Example 1. After approximately 24 h, the hind foot of the animal is exposed to the same dose of either laser light at 660-670 nm (135 Joules/cm^2) or the Xenon arc lamp (283 Joules/cm^2) as above. The reaction of the foot is scored for damage over the next few days to determine the maximum effect, which in this case is a value 0.3 equivalent to slight edema. If the internal between the injection and light treatment is extended to approximately 48 h, the foot reaction is zero (no damage incurred), indicating either clearance or metabolism of the sensitizer."}, "[3]": {"test_system": "tumor", "test": "in vivo tumoricidal activity assay", "settings": "injected at a dose of 5 mg/kg"}, "[4]": {"settings": "injected dose 0.1 mg/kg, wavelength 659"}, "[5]": {"settings": "injected dose 0.3 mg/kg, wavelength 659"}, "[6]": {"settings": "injected dose 0.3 mg/kg, wavelength 665"}, "[7]": {"settings": "injected dose 0.3 mg/kg, wavelength 670"}, "[8]": {"settings": "injected dose 0.3 mg/kg, wavelength 680"}, "[9]": {"settings": "ten mice, 0.3 mg/kg intravenously, approx. 24 h later laser light at 660-670 nm, 135 Joules/cm^2"}, "[10]": {"settings": "injected dose 0.1 mg/kg, wavelength 660"}, "[11]": {"settings": "injected dose 0.3 mg/kg, wavelength 660"}}}
{"smiles": "CCCCCCOC(C)c1c(C)c2cc3nc(c4c5[nH]c(cc6nc(cc1[nH]2)C(C)=C6CC)c(C)c5C(=O)C4)[C@@H](CCC(=O)O)[C@@H]3C", "note": "(stereo partly shown) [Formula II R5 = —O—(CH2)5CH3 R7 = —CO2H, 2-{1(O-hexyl)ethyl}devinyl pyropheophorbide-a]", "values": [{"measurement": "Tumor Response Day 1 (Number of non-palpable tumors/Number treated tumors)", "setting": "[1]; injected dose 0.05 mg/kg, wavelength 659", "value": "0/40"}, {"measurement": "Tumor Response Day 1 (Number of non-palpable tumors/Number treated tumors)", "setting": "[1]; [4]", "value": "6/6"}, {"measurement": "Tumor Response Day 7 (Number of non-palpable tumors/Number treated tumors)", "setting": "[1]; [4]", "value": "6/6"}, {"measurement": "Tumor Response Day 30 (Number of non-palpable tumors/Number treated tumors)", "setting": "[1]; [4]", "value": "1/6"}, {"measurement": "Tumor Response Day 90 (Number of non-palpable tumors/Number treated tumors)", "setting": "[1]; [4]", "value": "1/6"}, {"measurement": "Tumor Response Day 1 (Number of non-palpable tumors/Number treated tumors)", "setting": "[1]; injected dose 0.3 mg/kg, wavelength 655", "value": "0/10"}, {"measurement": "Tumor Response Day 1 (Number of non-palpable tumors/Number treated tumors)", "setting": "[1]; [5]", "value": "5/5"}, {"measurement": "Tumor Response Day 7 (Number of non-palpable tumors/Number treated tumors)", "setting": "[1]; [5]", "value": "4/5"}, {"measurement": "Tumor Response Day 30 (Number of non-palpable tumors/Number treated tumors)", "setting": "[1]; [5]", "value": "0/5"}, {"measurement": "Tumor Response Day 1 (Number of non-palpable tumors/Number treated tumors)", "setting": "[1]; [6]", "value": "10/10"}, {"measurement": "Tumor Response Day 7 (Number of non-palpable tumors/Number treated tumors)", "setting": "[1]; [6]", "value": "10/10"}, {"measurement": "Tumor Response Day 30 (Number of non-palpable tumors/Number treated tumors)", "setting": "[1]; [6]", "value": "2/10"}, {"measurement": "Tumor Response Day 90 (Number of non-palpable tumors/Number treated tumors)", "setting": "[1]; [6]", "value": "0/10"}, {"measurement": "Tumor Response Day 1 (Number of non-palpable tumors/Number treated tumors)", "setting": "[1]; [7]", "value": "10/10"}, {"measurement": "Tumor Response Day 7 (Number of non-palpable tumors/Number treated tumors)", "setting": "[1]; [7]", "value": "10/10"}, {"measurement": "Tumor Response Day 30 (Number of non-palpable tumors/Number treated tumors)", "setting": "[1]; [7]", "value": "6/10"}, {"measurement": "Tumor Response Day 90 (Number of non-palpable tumors/Number treated tumors)", "setting": "[1]; [7]", "value": "1/10"}, {"measurement": "Tumor Response Day 1 (Number of non-palpable tumors/Number treated tumors)", "setting": "[1]; [8]", "value": "1/10"}, {"measurement": "Tumor Response Day 7 (Number of non-palpable tumors/Number treated tumors)", "setting": "[1]; [8]", "value": "0/10"}, {"measurement": "Tumor state at 7 days post treatment", "setting": "[1]; [9]", "value": "all tumors remain non-palpable and necrotic"}, {"measurement": "Tumor state the day after light treatment", "setting": "[1]; [9]", "value": "all the tumors are seen to be flat (non-palpable)"}, {"measurement": "Tumor-free to 90 days post treatment (number of the 10)", "setting": "[1]; [9]", "value": "one"}, {"measurement": "Tumors remaining non-palpable at 30 days post treatment", "setting": "[1]; [9]", "value": "six of the 10"}, {"measurement": "Foot reaction, maximum effect (damage score)", "setting": "[2]; 0.1 mg/kg intravenously, hind foot exposed after approx. 24 h, 660-670 nm laser 135 Joules/cm^2 or Xenon arc lamp 283 Joules/cm^2, 0.3 equivalent to slight edema", "value": 0.3}, {"measurement": "Foot reaction (damage score)", "setting": "[2]; 0.1 mg/kg intravenously, interval between injection and light treatment approx. 48 h, zero = no damage incurred", "value": "zero"}, {"measurement": "Normal Foot Response Maximum Reaction (score)", "setting": "[2]; table row of injected dose 0.1 mg/kg, time interval 24 hours", "value": 0.3}, {"measurement": "Normal Foot Response Maximum Reaction (score)", "setting": "[2]; table row of injected dose 0.3 mg/kg, time interval 48-72 hours", "value": 0}]}
{"smiles": "C=Cc1c(C)c2cc3nc(c4c5[nH]c(cc6nc(cc1[nH]2)C(C)=C6CC)c(C)c5C(=O)[C@@H]4C(=O)OC)[C@@H](CCC(=O)OC)[C@@H]3C", "note": "[Methyl pheophorbide-a]", "values": [{"measurement": "in vivo tumoricidal activity", "setting": "[3]", "value": "inactive"}]}
{"smiles": "CCCCCCOC(C)c1c(C)c2cc3nc(c4c5[nH]c(cc6nc(cc1[nH]2)C(C)=C6CC)c(C)c5C(=O)C4)[C@@H](CCC(=O)OC)[C@@H]3C", "note": "(stereo partly shown) [Methyl-2-{1(O-hexyl)ethyl}-devinyl pyropheophorbide]", "values": [{"measurement": "Tumor Response Day 1 (Number of non-palpable tumors/Number treated tumors)", "setting": "[1]; [10]", "value": "5/5"}, {"measurement": "Tumor Response Day 30 (Number of non-palpable tumors/Number treated tumors)", "setting": "[1]; [10]", "value": "0/5"}, {"measurement": "Tumor Response Day 1 (Number of non-palpable tumors/Number treated tumors)", "setting": "[1]; [11]", "value": "6/6"}, {"measurement": "Tumor Response Day 7 (Number of non-palpable tumors/Number treated tumors)", "setting": "[1]; [11]", "value": "6/6"}, {"measurement": "Tumor Response Day 30 (Number of non-palpable tumors/Number treated tumors)", "setting": "[1]; [11]", "value": "3/6"}, {"measurement": "Tumor Response Day 90 (Number of non-palpable tumors/Number treated tumors)", "setting": "[1]; [11]", "value": "3/6"}]}
